# Assay results as given in US7462647B2, “Pentalfluoroalkanesulfinyl naphthalenes and related estrogen receptor modulators” (Eli Lilly and Company, priority 2003, dated 2008).
# What was measured:
# ERAlpha receptor = biological target: T1, ERAlpha receptor (Homo sapiens, UniProt P03372); assay: Competition binding assay, 3H-Estradiol, ER alpha; conditions: IC50 converted to Ki using Cheng-Prusoff equation
# T1 construct: purchased PanVera
# T1 sequence (P03372 1-595): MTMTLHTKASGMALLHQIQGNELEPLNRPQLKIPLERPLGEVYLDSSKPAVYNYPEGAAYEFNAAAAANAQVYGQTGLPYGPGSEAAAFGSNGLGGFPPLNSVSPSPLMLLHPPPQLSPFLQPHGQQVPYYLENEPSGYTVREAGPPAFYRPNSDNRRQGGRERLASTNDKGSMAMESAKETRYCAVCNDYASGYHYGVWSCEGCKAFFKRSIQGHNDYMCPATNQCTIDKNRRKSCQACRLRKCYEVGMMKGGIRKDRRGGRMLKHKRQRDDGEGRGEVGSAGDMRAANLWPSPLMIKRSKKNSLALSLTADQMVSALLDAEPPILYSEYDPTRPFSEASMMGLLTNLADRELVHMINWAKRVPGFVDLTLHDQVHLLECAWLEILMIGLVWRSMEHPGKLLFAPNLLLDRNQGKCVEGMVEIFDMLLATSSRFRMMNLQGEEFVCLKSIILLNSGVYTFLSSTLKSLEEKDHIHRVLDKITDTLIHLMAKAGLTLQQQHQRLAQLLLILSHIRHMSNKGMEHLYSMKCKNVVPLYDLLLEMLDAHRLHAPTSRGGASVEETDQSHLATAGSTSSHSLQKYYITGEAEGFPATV
# Method: (§1) Competition binding assay is run in a buffer containing 50 mM Hepes, pH 7.5, 1.5 mM EDTA, 150 mM NaCl, 10% glycerol, 1 mg/ml ovalbumin and 5 mM DTT, using 0.025 μCi per well ^3H-Estradiol(NEN #NET517 at […], 1 mCi/ml), 10 ng/well ERAlpha or ERbeta receptor (PanVera). Competing compounds are added at 10 different concentrations. Non-specific binding is determined in the presence of 1 μM of 17-B Estradiol. The binding reaction (140 μl) is incubated for 4 hours at room temperature, then 70 μl of cold DCC buffer is added to each reaction (DCC buffer contains per 50 ml of assay buffer, 0.75 g of charcoal (Sigma) and 0.25 g of dextran (Pharmacia)). Plates are mixed 8 minutes on an orbital shaker at 4° C. Plates are then centrifuged at 3,000 rpm at 4° C. for 10 minutes. An aliquot of 120 μl of the mix is transferred to another 96-well, white flat bottom plate (Costar) and 175 μl of Wallac Optiphase “Hisafe 3” scintillation fluid is added to each well. Plates are sealed and shaken vigorously on an orbital shaker. After an incubation of 2.5 hrs, read plates in a Wallac Microbeta counter. The data is used to calculate an IC50 and % Inhibition at 10 μM. The Kd for ^3H-Estradiol is determined by saturation binding to ER alpha and ER beta receptors. The IC50 values for compounds are converted to K; using Cheng-Prusoff equation and the Kd determined by saturation binding assay.
# [1] = test system: MCF-7 breast adenocarcinoma cells; assay: MCF-7 proliferation assay (14C-thymidine), antagonist mode; type: cell-based
# Method: MCF-7 breast adenocarcinoma cells (ATCC HTB 22) are maintained in MEM (minimal essential medium, phenol red-free, Gibco BRL) supplemented with 10% fetal bovine serum (FBS) (V/V), L-glutamine (2 mM), sodium pyruvate (1 mM), HEPES ((N-[2-hydroxyethyl]piperazine-N′-[2-ethanesulfonic acid]10 mM}, non-essential amino acids (0.1 mM) and Penicillin Streptomycin(IX). Seven days prior to assay, MCF-7 cells are switched to assay media which is the same as maintenance medium except supplemented with 10% dextran-coated charcoal-stripped fetal bovine serum (DCC-FBS) assay medium in place of 10% FBS. MCF-7 cells are removed from flasks using 10× Trypsin EDTA (phenol red free, Gibco BRL) and diluted to 1× in (Ca++/Mg++ free HBSS (phenol red-free). Cells are adjusted to 80,000 cells/ml in assay medium. […] For each of the agonist plates, a basal level (media), and a maximum stimulated level (with 1 μM E2) is determined. For each of the antagonist plates, a basal level (media) and a E2 (10 pM) alone control is determined. […] The plates are incubated overnight in the same incubator and then counted on the Wallac Microbeta counter. […] For the agonist mode, an EC50 and percent of maximum E2 stimulation and concentration of maximum stimulation is calculated. […]
# [2] = test system: Ishikawa human endometrial tumor cells; assay: Ishikawa cell alkaline phosphatase (PNPP) assay, antagonist mode; type: cell-based
# Source text: Ishikawa human endometrial tumor cells are maintained in MEM (minimum essential medium, with Earle's salts and L-Glutamine, Gibco BRL, Gaithersburg, Md.), supplemented with 10% fetal bovine serum (FBS) (V/V), (Gibco BRL). One day prior to assay, growth media is changed to assay medium, DMEM/F-12 (3:1) (Dulbecco's Modified Eagle Medium: Nutrient Mixture F-12, 3:1 Mixture, phenol red-free, Gibco BRL) supplemented with 5% dextran coated charcoal stripped fetal bovine serum (DCC-FBS) (Hyclone, Logen, UT), L-Glutamine (2 mM), MEM sodium pyruvate (1 mM), HEPES (N-[2-hydroxyethyl]piperazine-N′-[2-ethanesulfonic acid]2 mM) all from Gibco BRL). After an overnight incubation, ishikawa cells are rinsed with Dulbecco's Phosphate Buffered Saline (1×) (D-PBS) without Ca^+2 and Mg^+2 (Gibco BRL), and trypsinized by a 3 minute incubation with 0.25% Trypsin/EDTA, phenol red-free (Gibco BRL). Cells are resuspended in assay medium and adjusted to 250,000 cells/ml. […] After a 20-minute incubation, plates are read on a spectophotometer at 405 nm. […] For the agonist mode, a % efficacy for each compound is calculated versus the response to Tamoxifen. For the antagonist mode, a % efficacy for each compound is calculated versus E2 (1 nM) alone.
# ERbeta receptor = biological target: T2, ERbeta receptor (Homo sapiens, UniProt Q92731); assay: Competition binding assay, 3H-Estradiol, ER beta; conditions: IC50 converted to Ki using Cheng-Prusoff equation; read-out: Binding ER b Ki
# T2 construct: purchased PanVera
# T2 sequence (Q92731 whole entry): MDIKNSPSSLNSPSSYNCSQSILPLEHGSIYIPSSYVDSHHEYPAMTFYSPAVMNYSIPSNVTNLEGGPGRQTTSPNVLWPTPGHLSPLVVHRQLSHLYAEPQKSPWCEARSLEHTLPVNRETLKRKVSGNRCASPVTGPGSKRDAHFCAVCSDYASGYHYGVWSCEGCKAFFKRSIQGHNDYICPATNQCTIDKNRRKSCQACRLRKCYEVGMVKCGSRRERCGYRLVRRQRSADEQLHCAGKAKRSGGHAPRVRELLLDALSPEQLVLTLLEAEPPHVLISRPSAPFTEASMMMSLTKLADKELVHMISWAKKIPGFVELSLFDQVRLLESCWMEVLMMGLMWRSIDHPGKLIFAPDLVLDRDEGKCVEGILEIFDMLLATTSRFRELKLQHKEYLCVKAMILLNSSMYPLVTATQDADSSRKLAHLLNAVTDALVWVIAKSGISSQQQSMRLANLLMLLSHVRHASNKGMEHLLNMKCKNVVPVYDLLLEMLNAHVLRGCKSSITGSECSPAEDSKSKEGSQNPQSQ
# Method: as §1
compound,measurement,setting,value
"COc1ccc(-c2ccc3cc(O)ccc3c2Oc2ccc(OCCCC[S+]([O-])CCCC(F)(F)C(F)(F)F)cc2)cc1 (stereo not drawn) [Example 2, 6-(4-Methoxy-phenyl)-5-{4-[4-(4,4,5,5,5-pentafluoro-pentane-sulfinyl)-butoxy]-phenoxy}-naphthalen-2-ol]",Ki,ERAlpha receptor,0.3 nM
same,MCF-7 Antag. % Eff.,"[1]; 10 pM E2, % inhibition @ 1 μM",86%
same,IC50,"[1]; Homo sapiens, MCF7, 10 pM E2, read-out: MCF-7 IC 50",2.5 nM
same,Ishikawa Antag. % Eff.,[2]; % efficacy versus E2 (1 nM) alone,100%
same,IC50,"[2]; Homo sapiens, Ishikawa, E2 1 nM, read-out: Ishikawa IC 50",6.8 nM
same,Ki,ERbeta receptor,0.2 nM
